The record followed here is patent US8183246B2, “Acyclically substituted furopyrimidine derivatives and use thereof” (Bayer Intellectual Property GmbH, priority 2005, dated 2012).

In the experiment the target is T1, Prostacyclin Receptors (IP Receptors) of Human Thrombocyte Membranes (Homo sapiens, UniProt P43119).
T1 construct: Thrombocyte membranes are obtained by centrifuging 50 ml human blood; tissue Maco Pharma, Langen (buffy coats); host or cells: human thrombocyte (platelet) membranes from human blood
Nature of the experiment: Binding to prostacyclin receptors (IP receptors) of human thrombocyte membranes (3H-Iloprost displacement). The note with it: 3 nM 3H-Iloprost, 300-1000 μg/ml human thrombocyte membranes, 60 min, room temperature. As for the experimental part:
B-1. Studies of Binding to Prostacyclin Receptors (IP Receptors) of Human Thrombocyte Membranes
Thrombocyte membranes are obtained by centrifuging 50 ml human blood (Buffy coats with CDP Stabilizer, from Maco Pharma, Langen) for 20 min at 160×g. Remove the supernatant (platelet-rich plasma, PRP) and then centrifuge again at 2000×g for 10 min at room temperature. Resuspend the sediment in 50 mM tris-(hydroxymethyl)-aminomethane, which has been adjusted to a pH of 7.4 with 1 N hydrochloric acid, and store at −20° C. overnight. On the next day, centrifuge the suspension at 80000×g and 4° C. for 30 min. Discard the supernatant. Resuspend the sediment in 50 mM tris-(hydroxymethyl)-aminomethane/hydrochloric acid, 0.25 mM ethylene diamine tetraacetic acid (EDTA), pH 7.4, and then centrifuge once again at 80000×g and 4° C. for 30 min. Take up the membrane sediment in binding buffer (50 mM tris-(hydroxymethyl)-aminomethane/hydrochloric acid, 5 mM magnesium chloride, pH 7.4) and store at −70° C. until the binding test.
For the binding test, incubate 3 nM ^3H-Iloprost (592 GBq/mmol, from AmershamBioscience) for 60 min with 300-1000 μg/ml human thrombocyte membranes per charge (max. 0.2 ml) in the presence of the test substances at room temperature. After stopping, add cold binding buffer to the membranes and wash with 0.1% bovine serum albumin. After adding Ultima Gold Scintillator, quantify the radioactivity bound to the membranes using a scintillation counter. The nonspecific binding is defined as radioactivity in the presence of 1 μM Iloprost (from Cayman Chemical, Ann Arbor) and is as a rule <25% of the bound total radioactivity. The binding data (IC50 values) are determined using the program GraphPad Prism Version 3.02.

T1 sequence (P43119 whole entry): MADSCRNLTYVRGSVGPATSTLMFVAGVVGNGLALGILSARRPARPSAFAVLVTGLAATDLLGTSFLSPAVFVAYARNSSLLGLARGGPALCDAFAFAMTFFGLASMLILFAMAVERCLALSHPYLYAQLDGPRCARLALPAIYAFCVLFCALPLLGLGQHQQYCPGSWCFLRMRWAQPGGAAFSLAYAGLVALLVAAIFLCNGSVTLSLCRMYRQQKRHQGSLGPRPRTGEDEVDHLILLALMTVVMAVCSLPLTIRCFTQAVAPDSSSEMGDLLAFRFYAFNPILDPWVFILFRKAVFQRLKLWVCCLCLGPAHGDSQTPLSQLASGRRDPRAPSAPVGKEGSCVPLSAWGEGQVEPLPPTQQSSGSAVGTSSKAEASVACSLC

In general, IC50 refers to the concentration that inhibits the measured activity by half. High values mean weaker potency in that assay, low ones greater potency in that assay. For `COc1ccc(-c2c(-c3ccccc3)oc3ncnc(NCCCCCC(=O)O)c23)cc1` [Example 1, 6-{[5-(4-Methoxyphenyl)-6-phenylfuro[2,3-d]pyrimidin-4-yl]amino}hexanoic acid], the IC50 was found to be 206 nM.

Turning to `COc1ccc(-c2c(-c3ccccc3)oc3ncnc(OC[C@H](C)OCCC(=O)O)c23)cc1` [Example 83, (+)-3-{[(2S)-2-{[5-(4-Methoxyphenyl)-6-phenylfuro[2,3-d]pyrimidin-4-yl]oxy}-1-methylethoxy]-oxy}propionic acid], the IC50 was 20 nM.

Consider `CCc1ccc(-c2c(-c3ccccc3F)oc3ncnc(OC[C@H](C)OCCC(=O)O)c23)cc1` [Example 156, 3-[(1S)-2-{[5-(4-Ethylphenyl)-6-(2-fluorophenyl)furo[2,3-d]pyrimidin-4-yl]oxy}-1-methylethoxy]-propionic acid], for which the IC50 was 13 nM.

With `COc1ccc(-c2c(-c3ccccc3)oc3ncnc(OC(C)CN(C)CCCC(=O)O)c23)cc1` (racemic) [Example 92, (+/−)-4-[(2-{[5-(4-Methoxyphenyl)-6-phenylfuro[2,3-d]pyrimidin-4-yl]oxy}propyl)(methyl)-amino]butanoic acid], the IC50 worked out at 219 nM.

In turn, `COc1ccc(-c2c(-c3ccccc3)oc3ncnc(NCCCOCCc4nnn[nH]4)c23)cc1` [Example 15, 5-(4-Methoxyphenyl)-6-phenyl-N-{3-[2-(1H-tetrazol-5-yl)ethoxy]propyl}furo[2,3-d]pyrimidine-4-amine] had an IC50 of 82 nM.

Molecule `CCc1ccc(-c2c(-c3ccccc3)oc3ncnc(O[C@@H](C)CN(C)CCCC(=O)O)c23)cc1` [Example 140, (+)-4-{[(2S)-2-{[5-(4-Ethylphenyl)-6-phenylfuro[2,3-d]pyrimidin-4-yl]oxy}propyl](methyl)-amino}butyric acid] yielded an IC50 of 52 nM.

With `COc1ccc(-c2c(-c3ccccc3C)oc3ncnc(NCCCCCC(=O)O)c23)cc1` [Example 122, 6-{[5-(4-Methoxyphenyl)-6-(2-methylphenyl)furo[2,3-d]pyrimidin-4-yl]amino}hexanoic acid], the IC50 was 48 nM.

`COc1ccc(-c2c(-c3ccccc3)oc3ncnc(OC(C)CC(C)OCC(=O)O)c23)cc1` (single isomer, unassigned; enantiomer 2) [Example 146, (3-{[5-(4-Methoxyphenyl)-6-phenylfuro[2,3-d]pyrimidin-4-yl]oxy}-1-methylbutoxy)acetic acid (Enantiomer 2)] showed an IC50 of 7 nM.

Consider `COc1ccc(-c2c(-c3ccccc3Cl)oc3ncnc(NCCCCCC(=O)O)c23)cc1` [Example 117, 6-{[6-(2-Chlorophenyl)-5-(4-methoxyphenyl)furo[2,3-d]pyrimidin-4-yl]amino}hexanoic acid], for which the half-maximal inhibitory concentration (IC50) was found to be 84 nM.

Turning to `COc1ccc(-c2c(-c3ccccc3)oc3ncnc(NCCCCCc4nnn[nH]4)c23)cc1` [Example 4, 5-(4-Methoxyphenyl)-6-phenyl-N-[5-(1H-tetrazol-5-yl)pentyl]furo[2,3-d]pyrimidine-4-amine], the IC50 was 34 nM.

`COc1ccc(-c2c(-c3ccccc3)oc3ncnc(OCC(C)(C)COCC(=O)O)c23)cc1` [Example 95, (3-{[5-(4-Methoxyphenyl)-6-phenylfuro[2,3-d]pyrimidin-4-yl]oxy}-2,2-dimethylpropoxy)acetic acid] displayed an IC50 of 10 nM.

The molecule `CCc1ccc(-c2c(-c3ccccc3F)oc3ncnc(O[C@H](C)CCCCC(=O)O)c23)cc1` [Example 142, (−)-(6R)-6-{[5-(4-Ethylphenyl)-6-(2-fluorophenyl)furo[2,3-d]pyrimidin-4-yl]oxy}heptanoic acid] displayed an IC50 of 2.5 nM. Against the preceding molecule, the IC50 is about 4-fold lower.

As for `CCc1ccc(-c2c(-c3ccccc3F)oc3ncnc(OC[C@H](C)COCC(=O)O)c23)cc1` [Example 154, (−)-{[(2R)-3-{[5-(4-Ethylphenyl)-6-(2-fluorophenyl)furo[2,3-d]pyrimidin-4-yl]oxy}-2-methyl-propyl]oxy}acetic acid], the IC50 was 3.8 nM.

Molecule `COc1ccc(-c2c(-c3ccccc3)oc3ncnc(OCCCCCc4nnn[nH]4)c23)cc1` [Example 14, 5-(4-Methoxyphenyl)-6-phenyl-4-{[5-(1H-tetrazol-5-yl)pentyl]oxy}-furo[2,3-d]pyrimidine] registered an IC50 of 49 nM. This IC50 lies about 13-fold higher than the previous one.

`COC(=O)CCCCCNc1ncnc2oc(-c3ccccc3F)c(-c3ccc(OC)cc3)c12` [Example 113, 6-{[6-(2-Fluorophenyl)-5-(4-methoxyphenyl)furo[2,3-d]pyrimidin-4-yl]amino}hexanoic acid methyl ester] showed a 50% inhibitory concentration (IC50) of 51 nM.

In turn, `COC(=O)CCCCCN(C)c1ncnc2oc(-c3ccccc3)c(-c3ccc(OC)cc3)c12` [Example 45, 6-{[5-(4-Methoxyphenyl)-6-phenylfuro[2,3-d]pyrimidin-4-yl](methyl)amino}hexanoic acid methyl ester] came in with an IC50 of 895 nM.

Turning to `COc1ccc(-c2c(-c3ccccc3)oc3ncnc(O[C@H](C)CCCCC(=O)O)c23)cc1` (single isomer, unassigned; enantiomer 2) [Example 69, (−)-6-{[5-(4-Methoxyphenyl)-6-phenylfuro[2,3-d]pyrimidin-4-yl]oxy}heptanoic acid (Enantiomer 2)], the IC50 was found to be 9 nM.

On to `CCc1ccc(-c2c(-c3ccccc3)oc3ncnc(NCCCCCC(=O)OC)c23)cc1` [Example 36], for which the IC50 came out at 217 nM.

With `CCOC(=O)COC[C@@H](C)COc1ncnc2oc(-c3ccccc3F)c(-c3ccc(OC)cc3)c12` [Example 152, (−)-{[(2R)-3-{[5-(4-Methoxyphenyl)-6-(2-fluorophenyl)furo[2,3-d]pyrimidin-4-yl]oxy}-2-methyl-propyl]oxy}acetic acid ethyl ester], the IC50 stood at 3.7 nM. Compared with the last molecule, the IC50 is about 59-fold lower.

As to `CCc1ccc(-c2c(-c3ccccc3)oc3ncnc(O[C@@H](C)COCCC(=O)O)c23)cc1` [Example 85, (+)-3-{[2-{[5-(4-Ethylphenyl)-6-phenylfuro[2,3-d]pyrimidin-4-yl]oxy}propyl]oxy}propionic acid], the half-maximal inhibitory concentration (IC50) came out at 470 nM.

Take `COc1ccc(-c2c(-c3ccccc3F)oc3ncnc(O[C@@H](C)CN(C)CCCC(=O)O)c23)cc1` [Example 138, (+)-4-{[(2S)-2-{[6-(2-Fluorophenyl)-5-(4-methoxyphenyl)furo[2,3-d]pyrimidin-4-yl]oxy}propyl]-(methyl)amino}butyric acid]: the IC50 turned out to be 53 nM.

In the case of `C=Cc1ccc(-c2c(-c3ccccc3)oc3ncnc(NCCCCCC(=O)O)c23)cc1` [Example 33], the IC50 stood at 64 nM.

In turn, `CCc1ccc(-c2c(-c3ccccc3)oc3ncnc(O[C@H](C)CCOCC(=O)O)c23)cc1` [Example 80, (−)-{[3-{[5-(4-Ethylphenyl)-6-phenylfuro[2,3-d]pyrimidin-4-yl]oxy}butyl]oxy}acetic acid] yielded an IC50 of 22 nM.

`COC(=O)CCCCC(C)Oc1ncnc2oc(-c3ccccc3)c(-c3ccc(OC)cc3)c12` (racemic) [Example 63, (+/−)-6-{[5-(4-Methoxyphenyl)-6-phenylfuro[2,3-d]pyrimidin-4-yl]oxy}heptanoic acid methyl ester]: the IC50 was found to be 37 nM.

`COc1ccc(-c2c(-c3ccccc3)oc3ncnc(OCC(C)COCC(=O)O)c23)cc1` (single isomer, unassigned; enantiomer 1) [Example 128, (+)-(3-{[5-(4-Methoxyphenyl)-6-phenylfuro[2,3-d]pyrimidin-4-yl]oxy}-2-methylpropoxy)acetic acid (Enantiomer 1)]: the IC50 was determined as 33 nM.
